Laboratory results from paper PMC7855930, “Nontoxic Cobalt(III) Schiff Base Complexes with Broad‐Spectrum Antifungal Activity” (Chemistry (Weinheim an Der Bergstrasse, Germany), 2020).

How the values were obtained:
[1] = Stability in water by 1H NMR (axial ligand exchange); type: physicochemical; conditions: room temperature
From the text: Because our previous results had shown that complexes bearing weak axial donors are more biologically active, we sought to synthesise a very labile Co^III‐bis(thiosemicarbazone) complex by using a weakly donating pyridine axial monodentate ligand. We were unable to synthesise a complex using unsubstituted pyridine, probably because it is a such a weak donor ligand that it will not remain bound to the Co^III center even briefly, preventing isolation of the complex. However, we were able to isolate a complex (3) bearing the more electron‐donating 4‐(dimethylamino)pyridine (DMAP) ligand in the axial positions. As expected, this complex is extremely labile. […] In our hands, the bis‐aqua complex could not be isolated.

[2] = test system: C. neoformans; test: CO-ADD screening, broth microdilution MIC, yeast reference strain; type: cell-based
From the text: (§1) As previously mentioned, complexes 1, 2 and 4 were studied in earlier biological assays. […] In our CO‐ADD screening, using broth microdilution (BMD) MIC assays (Table S2), complexes 1–3 were effective at killing drug‐susceptible yeast reference strains of C. albicans and C. neoformans while displaying no antibacterial activity.

[3] = test system: C. albicans; test: as above; type: cell-based
From the text: as §1

[4] = test system: CO-ADD bacterial panel; test: CO-ADD bacterial panel, overall antibacterial activity; type: cell-based; conditions: CO‐ADD screening, Table S2
Experimental: CO-ADD High Throughput Screening
Bacterial broth microdilution minimum inhibitory concentration (MIC) assay Bacterial strains were cultured in Cation-adjusted Mueller Hinton broth (CAMHB; Bacto Laboratories 212322) at 37 °C overnight. A sample of each culture was then diluted 40-fold in fresh CAMHB and incubated at 37 °C for 1.5-3 h. The resultant mid-log phase cultures were diluted with CAMHB (CFU/mL measured by OD600), then added to each well of the compound-containing plates (384-well non-binding surface (NBS) plates; Corning CLS3640), giving a cell density of 5 × 10^5 CFU/mL and a total volume of 50 µL. Plates were covered and incubated at 37 °C for 18 h without shaking. Inhibition of bacterial growth was determined measuring absorbance at 600 nm (OD600), using media only as negative control and bacteria without inhibitors as positive control. MIC values were determined as the lowest concentration at which the growth was inhibited at ≥ 80%. Colistin sulfate (Sigma C4461) and vancomycin HCl (Sigma 861987) were used as positive inhibitor controls on each plate for Gram-negative and Gram-positive bacteria, respectively.
Figure S1. 1H NMR (400 MHz) of [Co(ATS)(DMAP)2]NO3 (3) in DMSO-d6.
(1 picture or pasted object on this page, not shown here)

[5] = test system: panel of eight Candida and Cryptococcus strains; test: Antifungal MIC, summary over the extended panel; type: cell-based; conditions: whole yeast panel, tested alone
From the text: Yeast strains: Candida albicans (ATCC 90028, NCCLS 11), Cryptococcus neoformans (ATCC 208821, H99 type strain), Candida tropicalis (ATCC 750, type strain), Candida glabrata (ATCC 90030, NCCLS 84) and Cryptococcus deuterogattii (ATCC 32609, type strain) were obtained from the American Type Culture Collection (ATCC). Cryptococcus deuterogattii (CBS 7750), Candida auris (CBS 10913) and Candida auris (CBS 12373) were obtained from the CBS‐KNAW culture collection. The strains were maintained on glycerol/YPD (yeast extract‐peptone dextrose) broth (20:80 v/v) at −80 °C.
Antifungal minimum inhibitory concentration (MIC) assay: The cobalt complexes and antifungal control compounds were serially diluted in 50 μL of Yeast Nitrogen Broth (YNB; BD, Cat No. 233520 supplemented with 2 % glucose and 10 mM ammonium sulfate) two‐fold across the wells of non‐binding surface (NBS) 96‐well plates (Corning; Cat. No. 3641). […]
Yeast strains were cultured from glycerol onto YPD (Becton Dickinson 242720) agar at 30 °C for 72 h. For each strain, a minimum of five single colonies were taken from the agar plate and dissolved in sterile water and adjusted to form a yeast suspension of 1×10^6 to 5×10^6 CFU mL^−1 (as determined by OD530). […]
Growth inhibition of all strains was determined visually where the MIC was recorded as the lowest compound concentration with no visible growth. […]

CC1=[N+]2N=C(N)[S][Co-3]23([n+]2ccc(N(C)C)cc2)([n+]2ccc(N(C)C)cc2)[S]C(N)=N[N+]3=C1C.O=[N+]([O-])[O-] [Compound 3, [Co(ATS)(DMAP)2]NO3]
Stability on dissolution in water ([1]; 1H NMR, on dissolution): immediately yields a mixture of species
Stability in water overnight ([1]; incubation overnight): totally converted into the bis‐aqua complex

O=[N+]([O-])[O-].[NH3+][Co-3]123([NH3+])[O]c4c(F)cccc4C=[N+]1c1ccccc1[N+]2=Cc1cccc(F)c1[O]3 [Compound 7, [Co(3F‐salophen)(NH3)2]NO3]
Antifungal activity, C. neoformans reference strain [2]: neither antibacterial nor antifungal activity
Antifungal activity, C. albicans reference strain [3]: neither antibacterial nor antifungal activity
Antibacterial activity [4]: neither antibacterial nor antifungal activity

O=[N+]([O-])[O-].O=[N+]([O-])[O-].[Co+2] [Co, Co(NO3)2, reference compound]
MIC, no detectable antifungal effect up to [5]: > 100 µM
